# Assay results taken from US5684151A, “1-arylsulphonyl, arylcarbonyl and 1-arylphosphonyl-3-phenyl-1,4,5,6-tetrahydropyridazines” (priority 1995, dated 1997).
# pIC50: −log10 of the molar value. Read-outs that look alike come from different tables or passages of the source.
# Tests used:
# [1] = target: T1, progestin receptor from rabbit uterus (Oryctolagus cuniculus, UniProt P06186); experiment: Progestin receptor binding (3H-R5020 displacement); details: rabbit uterine cytosol, 4° C., 18 h, read-out: IC50: Binding affinity for the progestin receptor from rabbit uterus
# T1 construct: Cytosolic progestin receptor were obtained by mixing rabbit uterine tissue with a Tris buffer; from tissue; host or cells: rabbit uterus cytosol
# T1 sequence (P06186 whole entry): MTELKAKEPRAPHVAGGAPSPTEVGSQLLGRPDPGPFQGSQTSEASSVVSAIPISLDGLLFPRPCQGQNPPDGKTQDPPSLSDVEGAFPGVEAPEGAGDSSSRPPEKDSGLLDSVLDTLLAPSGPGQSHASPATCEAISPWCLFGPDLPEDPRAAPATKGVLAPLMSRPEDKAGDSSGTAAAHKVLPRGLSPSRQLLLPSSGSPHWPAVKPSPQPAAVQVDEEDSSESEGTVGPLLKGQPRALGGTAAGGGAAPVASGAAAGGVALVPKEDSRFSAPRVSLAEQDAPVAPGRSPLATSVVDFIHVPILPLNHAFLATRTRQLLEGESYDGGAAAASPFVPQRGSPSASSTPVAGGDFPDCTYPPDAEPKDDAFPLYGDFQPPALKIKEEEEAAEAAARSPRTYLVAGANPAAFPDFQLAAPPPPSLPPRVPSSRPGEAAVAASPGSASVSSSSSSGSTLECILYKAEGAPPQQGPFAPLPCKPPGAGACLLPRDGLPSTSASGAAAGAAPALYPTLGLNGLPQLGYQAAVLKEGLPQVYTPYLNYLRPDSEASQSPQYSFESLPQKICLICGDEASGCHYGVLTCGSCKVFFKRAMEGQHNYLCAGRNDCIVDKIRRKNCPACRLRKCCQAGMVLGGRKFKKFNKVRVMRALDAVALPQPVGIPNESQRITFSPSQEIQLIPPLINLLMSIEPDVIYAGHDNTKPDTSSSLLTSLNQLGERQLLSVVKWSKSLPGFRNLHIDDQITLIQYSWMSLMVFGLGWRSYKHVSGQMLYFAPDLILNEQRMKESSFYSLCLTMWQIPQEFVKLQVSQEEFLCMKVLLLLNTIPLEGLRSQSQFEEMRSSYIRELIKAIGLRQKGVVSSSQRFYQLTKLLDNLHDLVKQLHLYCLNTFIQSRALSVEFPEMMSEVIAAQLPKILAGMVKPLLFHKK
# How it was run: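 Displacement of the radioligand 3H-R5020 was measured in cytosol from homogenized rabbit uterus (pH 7.4 Tris/EDTA/DTT/molybdate buffer), with compounds at 5% final DMSO and about 18 h at 4 °C. Charcoal removed free ligand, scintillation counting quantified bound ligand, and IC50 was the concentration displacing half.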
# rabbit endometrium [2] = experiment: In vivo progestational test (Clauberg Test); design: species or system rabbit (immature New Zealand White female); key: Active in Clauberg Assay; Active in McGinty Assay; details: oral or parenteral, daily for five days
# Procedure: Progestational activity was also measured in vivo by the abiity to stimulate the rabbit endometrium after either oral or parenteral administration.
# […]. Starting on the 7th day, the rabbits were given the test material daily for five days. The rabbits were sacrificed approximately 24 hours after the last administration, and the uteri were excised, trimmed and weighed. Portions of both uterine horns were fixed in 10% neutral formalin, sectioned at 6μ and stained with hematoxylin and eosin. Progestational activity was assessed as described above for the McGinty Test.
# [3] = tested on: Human T47D breast carcinoma cells; experiment: Ex vivo progestational test (T47D proliferation); type: cell-based; details: SC200, 3H-thymidine incorporation
# Procedure: The progestational activity of the compounds was accessed by their ability to stimulate proliferation of human breast carcinoma cells. Proliferation was measured as the ability to stimulate ^3 H-thymidine incorporation into these cells in vitro. Human T47D breast carcinoma cells (American Type Tissue Collection #133-HTB) were maintained in media consisting or RPMI 1640 supplemented with 10% fetal bovine serum, 10 ug/ml insulin, 10 U/ml pennicillin, 100 ug/ml streptomycin, and 2 mM L-glutamine. Monolayer cell cultures were trypsinized and washed in assay media consisting of phenol red-free RPMI 1640 supplemented with 5% charcoal-stripped, fetal bovine serum, and the other ingredients listed above. Cells were then plated in a 96-well plate. After a 48-hour incubation period at 37° C., the conditioned media was removed and replaced with fresh media containing test compounds in DMSO (0.1% DMSO final concentration). The cell cultures were incubated for 18 to 20 hours at 37° C. ^3 H-thymidine was then added to each well and the cell cultures were incubated at 37° C. for an additional 4 hours. Labelling was stopped by addition of un labelled thymidine. The cultures were washed twice, trypsinized and then harvested onto a filter mat. Incorporated ^3 -H-thymidine was measured by liquid scintillation counting. Data was expressed as a percent stimulation above control level which was set at 100%. An SC200 value was calculated as the concentration of test material needed to stimulate ^3 H-thymidine incorporation 200% of control.
# Aspects of the application of the procedure used are described in the following: C. Christensen, D. Gunter, D. Saunders and V. Malviya, Gynecol. Oncol., 28, 25 (1987); J. Puzas, R. Drivdahl, G. Howard and D. Baylink, Proc. Soc. Exp. Biol. Med., 166, 113 (1981); and I. Keydar, L. Chen, S. Karby, F. Weiss, J. Delarea, M. Raduy, S. Chaitcik and H. Brenner, Eur. J. Cancer, 15, 659 (1979)
# rabbit endometrium [4] = experiment: In vivo progestational test (McGinty Test); design: species or system rabbit (immature New Zealand White female); key: Active in Clauberg Assay; Active in McGinty Assay; details: injection into uterine horn, 72 hours
# Procedure: Progestational activity was measured in vivo by the ability to stimulate the rabbit endometrium after injection into the uterine horn.
# Immature New Zealand White female rabbits were injected subcutaneously for 6 days with 5.0 μg of 17β-estradiol per day. On the 7th day the rabbits were anesthetized, the abdomen opened and a uterine horn exposed. Two ligatures were placed around a segment of the uterus 3-4 cm long, leaving the major blood vessels outside the ties.
# The upper ligature was tied tightly, and the lower one was left loose. A needle attached to a syringe was injected in the uterus below the second ligature and up into the area between the two ligatures. As the test material was injected, the ligature was tightened and held tight so that the needle was withdrawn without the loss of fluid. The second ligature was secured and the abdomen closed.
# The rabbits were sacrificed approximately 72 hours after the injection. The uteri were removed, fixed in 10% buffered formalin, sectioned at 6μ, and stained with hematoxylin and eosin. The evaluation for endometrial proliferation was made according to a McPhail Index. Each slide was graded for each rabbit on a 0 (no response)-4 (maximum response) scale.
# [5] = tested on: mouse (MC3T3-E1) and human (TE-85) osteoblast-line cells; type: cell-based
# How it was run: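 Proliferation was read as ^3H-thymidine (0.4 μCi) uptake during a 4 h pulse, which started 20 h after compound addition. Before dosing, cells sat 24 h in 0.1% FBS. Values are % times control (100%).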
# mature female rabbits = experiment: Additional test to determine bone growth activity (bone density by dual X-ray densitometry); type: in vivo, rabbit; details: oral once daily, 12 weeks, vs vehicle treated control
# Procedure: Test compounds were orally administered once daily to mature female rabbits for 12 weeks. Bone density was measured by dual X-ray densitometry and results were expressed as % base line bone mineral content.
Compound,pIC50 [1],In-vivo: Active in Clauberg Assay (rabbit endometrium [2]),T47D: Concentration to elicit a 200% increase in T47D Human breast cell proliferation [3],In-vivo: Active in McGinty Assay (rabbit endometrium [4]),"Osteoblast Cell Proliferation, 3H-thymidine incorporation vs control (100%) ([5]; 10^-6) [%]","Osteoblast Cell Proliferation, 3H-thymidine incorporation vs control (100%) ([5]; 10^-7) [%]","Osteoblast Cell Proliferation, 3H-thymidine incorporation vs control (100%) ([5]; 10^-8) [%]","Osteoblast Cell Proliferation, 3H-thymidine incorporation vs control (100%) ([5]; 10^-9) [%]","Osteoblast Cell Proliferation, 3H-thymidine incorporation vs control (100%) ([5]; 10^-10) [%]",bone mineral content (mature female rabbits)
"O=S(=O)(c1ccc(I)cc1)N1CCCC(c2ccc(Cl)c(C(F)(F)F)c2)=N1 [Compound 1, 3-(4-Chloro-3-trifluoromethylphenyl)-1-(4-iodobenzenesulfonyl)-1,4,5,6-tetrahydropyridazine]",8.88,C,46,M,–,–,–,–,–,–
"O=S(=O)(c1ccc(Cl)cc1)N1CCCC(c2ccc(Cl)c(Cl)c2)=N1 [Compound 12, 3-(3,4-dichlorophenyl)-1-(4-chlorobenzenesulphonyl)-1,4,5,6-tetrahydropyridazine]",9.00,C,153,M,118,115,114,131,135,–
O=S(=O)(c1cccc(C(F)(F)F)c1)N1CCCC(c2ccc(Cl)cc2)=N1 [Compound 35],8.52,–,–,M,82,101,123,150,154,–
"O=S(=O)(c1ccc(Br)cc1)N1CCCC(c2ccc(Cl)c(Cl)c2)=N1 [Compound 39, 3-(3,4-dichlorophenyl)-1-(4-bromobenzenesulphonyl)-1,4,5,6-tetrahydropyridazine]",9.15,C,100,M,92,94,84,115,99,–
"O=S(=O)(c1ccc(I)cc1)N1CCCC(c2ccc(Cl)c(Cl)c2)=N1 [Compound 40, 3-(3,4-dichlorophenyl)-1-(4-iodobenzenesulphonyl)-1,4,5,6-tetrahydropyridazine]",8.93,C,26,M,78,90,71,58,53,–
"Cc1ccc(S(=O)(=O)N2CCCC(c3ccc(Cl)c(Cl)c3)=N2)cc1 [Compound 41, 3-(3,4-dichlorophenyl)-1-(4-methylbenzenesulphonyl)-1,4,5,6-tetrahydropyridazine]",8.71,–,4000,M,138,158,166,144,116,–
"O=S(=O)(c1ccc2ccccc2c1)N1CCCC(c2ccc(Cl)c(Cl)c2)=N1 [Compound 42, 3-(3,4-dichlorophenyl)-1-(2-naphthylenesulfonyl)-1,4,5,6-tetrahydropyridazine]",9.01,–,321,M,135,144,155,146,166,–
O=S(=O)(c1ccc(Cl)cc1)N1CCCC(c2ccc(Cl)c(C(F)(F)F)c2)=N1 [Compound 77],8.83,C,286,M,–,–,–,–,–,–
O=S(=O)(c1ccc2c(c1)CCCC2)N1CCCC(c2ccc(Cl)c(C(F)(F)F)c2)=N1 [Compound 78],8.61,C,10000,M,–,–,–,–,–,–
O=S(=O)(c1cc(Cl)cc(Cl)c1)N1CCCC(c2ccc(Cl)c(C(F)(F)F)c2)=N1 [Compound 80],9.10,–,85,M,–,–,–,–,–,–
Cc1ccc(S(=O)(=O)N2CCCC(c3ccc(Cl)c(C(F)(F)F)c3)=N2)cc1 [Compound 82],8.53,–,608,M,–,–,–,–,–,–
"O=C(c1ccc(Cl)c(Cl)c1)N1CCCC(c2ccccc2)=N1 [Compound 185, 1-(3,4-dichlorobenzoyl)-3-phenyl-1,4,5,6-tetrahydropyridazine]",5.45,–,10000,–,98,136,147,131,128,significant increase in bone mineral content
"O=C(c1ccc(Cl)c(Cl)c1)N1CCCC(c2cccs2)=N1 [Compound 280, 3-(2-Thienyl)-1-(3,4-dichlorobenzoyl)-1,4,5,6-tetrahydropyridazine]",–,–,–,–,–,–,–,–,–,significant increase in bone mineral content
"CC1CCC(c2ccc(Cl)c(C(F)(F)F)c2)=NN1S(=O)(=O)c1ccc(I)cc1 (centres unmarked) [Compound 281, 1-(4-Iodobenzenesulfonyl)-3-(3-trifluoromethyl-4-chlorophenyl)-6-methyl-1,4,5,6-tetrahydropyridazine]",10.70,C,10,–,–,–,–,–,–,–
"CC1CCC(c2ccc(Cl)c(Cl)c2)=NN1S(=O)(=O)c1ccc(I)cc1 (centres unmarked) [Compound 282, 1-(4Iodobenzenesulfonyl)-3-(3,4-dichlorophenyl)-6-methyl 1,4,5,6-tetrahydropyridazine]",9.70,C,10.5,–,–,–,–,–,–,–
